Our source for the relative viability values is the supplement of paper PMC10307832.

Common to all, as to test: relative viability (nuclei count vs DMSO), 5 days (fraction); higher = more cells survive
Compound in assay [1]: COc1cccc2c1C(=O)c1c(O)c3c(c(O)c1C2=O)C[C@@](O)(C(=O)CO)C[C@@H]3O[C@H]1C[C@H](N)[C@H](O)[C@H](C)O1 [Doxorubicin] + CC(=O)Nc1cccc(-n2c(=O)n(C3CC3)c(=O)c3c(Nc4ccc(I)cc4F)n(C)c(=O)c(C)c32)c1 [Trametinib] (partner 0.02 µM)
The procedure, abridged:
(§1)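 Values are medians from duplicate plates. Each reflects relative viability, defined as the nuclei count of treated wells over that of vehicle wells. Lung cancer cell lines in 1536-well plates were pin-tool dosed one day after seeding with one drug alone or with a fixed anchor-drug dose plus five library-drug doses (not always all listed) in √10 steps, then fixed, stained and imaged at 4× after 5 days.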

Compound in assay [2]: COC1=C(C=C(C=C1)C2=CC3=NC=CN3C(=N2)NC4=C(C=CC=N4)C(=O)N)OC [BAY61-3606] + N=C(N)NC(=N)NCCc1ccccc1 [Phenformin] (partner 250 µM)
A digest of the protocol: as §1

Compound in assay [3]: COc1cccc2c1C(=O)c1c(O)c3c(c(O)c1C2=O)C[C@@](O)(C(=O)CO)C[C@@H]3O[C@H]1C[C@H](N)[C@H](O)[C@H](C)O1 [Doxorubicin] + CS(=O)(=O)N1CCN(Cc2cc3nc(-c4cccc5[nH]ncc45)nc(N4CCOCC4)c3s2)CC1 [Pictilisib] (partner 1 µM)
The procedure, abridged: as §1

Compound in assay [4]: COc1cccc2c1C(=O)c1c(O)c3c(c(O)c1C2=O)C[C@@](O)(C(=O)CO)C[C@@H]3O[C@H]1C[C@H](N)[C@H](O)[C@H](C)O1 [Doxorubicin] + O=C(CCCCCCC(=O)Nc1ccccc1)NO [Vorinostat] (partner 1 µM)
The procedure, abridged:
as §1

In the case of NCI-H2087, the relative viability came out at 0.17 in assay [1] (first compound 0.001 µM); 0.201 in assay [1] (first compound 0.003162 µM); 0.158 in assay [1] (first compound 0.01 µM); 0.172 in assay [1] (first compound 0.03162 µM); 0.166 in assay [1] (first compound 0.1 µM); 0.432 in assay [2] (first compound 0.02 µM). Also, the relative viability was 0.463 in assay [2] (first compound 0.06325 µM); 0.44 in assay [2] (first compound 0.2 µM); 0.411 in assay [2] (first compound 0.6325 µM); 0.384 in assay [2] (first compound 2 µM); 0.703 in assay [3] (first compound 0.001 µM); 0.886 in assay [3] (first compound 0.003162 µM). In addition, the relative viability was determined as 0.841 in assay [3] (first compound 0.01 µM); 0.495 in assay [3] (first compound 0.03162 µM); 0.454 in assay [3] (first compound 0.1 µM); 0.327 in assay [4] (first compound 0.001 µM); 1.08 in assay [4] (first compound 0.003162 µM); 0.746 in assay [4] (first compound 0.01 µM). Also, the relative viability in assay [4] (first compound 0.03162 µM) came to 0.75; in assay [4] (first compound 0.1 µM) it was 0.677.

Regarding COR-L23, the relative viability amounted to 0.54 in assay [1] (first compound 0.001 µM); 0.526 in assay [1] (first compound 0.003162 µM); 0.545 in assay [1] (first compound 0.01 µM); 0.254 in assay [1] (first compound 0.03162 µM); 0.149 in assay [1] (first compound 0.1 µM); 0.474 in assay [2] (first compound 0.02 µM). The relative viability stood at 0.438 in assay [2] (first compound 0.06325 µM); 0.495 in assay [2] (first compound 0.2 µM); 0.466 in assay [2] (first compound 0.6325 µM); 0.352 in assay [2] (first compound 2 µM); 0.928 in assay [3] (first compound 0.001 µM); 1.04 in assay [3] (first compound 0.003162 µM). Further, the relative viability in assay [3] (first compound 0.01 µM) was 0.651; in assay [3] (first compound 0.03162 µM), 0.199; in assay [3] (first compound 0.1 µM), 0.121; in assay [4] (first compound 0.001 µM), 0.48; in assay [4] (first compound 0.003162 µM), 0.395; in assay [4] (first compound 0.01 µM), 0.356. Moreover, the figures for the relative viability in assay [4] (first compound 0.03162 µM) and in assay [4] (first compound 0.1 µM) were 0.252 and 0.157, respectively.

With BEN, the relative viability in assay [1] (first compound 0.001 µM) was found to be 1.02; in assay [1] (first compound 0.003162 µM) it was 0.854; in assay [1] (first compound 0.01 µM), 0.897; in assay [1] (first compound 0.03162 µM), 0.723; in assay [1] (first compound 0.1 µM), 0.968; in assay [2] (first compound 0.02 µM), 0.272. The relative viability in assay [2] (first compound 0.06325 µM) stood at 0.257; in assay [2] (first compound 0.2 µM), 0.294; in assay [2] (first compound 0.6325 µM), 0.284; in assay [2] (first compound 2 µM), 0.255; in assay [3] (first compound 0.001 µM), 0.7; in assay [3] (first compound 0.003162 µM), 0.509. Besides, the relative viability in assay [3] (first compound 0.01 µM) is 0.546; in assay [3] (first compound 0.03162 µM), 0.472; in assay [3] (first compound 0.1 µM), 0.493; in assay [4] (first compound 0.001 µM) it was 0.617; in assay [4] (first compound 0.003162 µM), 0.612; in assay [4] (first compound 0.01 µM), 0.467. Also, the relative viability in assay [4] (first compound 0.03162 µM) stood at 0.58; in assay [4] (first compound 0.1 µM), 0.502.

With ChaGo-K-1, the relative viability in assay [1] (first compound 0.001 µM) worked out at 0.984; in assay [1] (first compound 0.003162 µM), 0.858; in assay [1] (first compound 0.01 µM), 0.661; in assay [1] (first compound 0.03162 µM), 0.926; in assay [1] (first compound 0.1 µM), 0.86; in assay [2] (first compound 0.02 µM) it was 0.513. Further, the relative viability is 0.451 in assay [2] (first compound 0.06325 µM); 0.515 in assay [2] (first compound 0.2 µM); 0.462 in assay [2] (first compound 0.6325 µM); 0.52 in assay [2] (first compound 2 µM); 0.971 in assay [3] (first compound 0.001 µM); 0.506 in assay [3] (first compound 0.003162 µM). For the same cell line, the relative viability is 0.621 in assay [3] (first compound 0.01 µM); 0.369 in assay [3] (first compound 0.03162 µM); 0.238 in assay [3] (first compound 0.1 µM); 0.763 in assay [4] (first compound 0.001 µM); 0.76 in assay [4] (first compound 0.003162 µM); 0.721 in assay [4] (first compound 0.01 µM). Besides, the relative viability was 0.698 in assay [4] (first compound 0.03162 µM) and 0.574 in assay [4] (first compound 0.1 µM).

As for LK-2, the relative viability in assay [1] (first compound 0.001 µM) was 0.798; in assay [1] (first compound 0.003162 µM), 0.936; in assay [1] (first compound 0.01 µM), 0.598; in assay [1] (first compound 0.03162 µM) it was 0.578; in assay [1] (first compound 0.1 µM), 0.699; in assay [2] (first compound 0.02 µM) it was 0.389. Moreover, the relative viability was 0.307 in assay [2] (first compound 0.06325 µM); 0.368 in assay [2] (first compound 0.2 µM); 0.463 in assay [2] (first compound 0.6325 µM); 0.221 in assay [2] (first compound 2 µM); 0.498 in assay [3] (first compound 0.001 µM); 0.457 in assay [3] (first compound 0.003162 µM). Also, the relative viability came out at 0.534 in assay [3] (first compound 0.01 µM); 0.498 in assay [3] (first compound 0.03162 µM); 0.442 in assay [3] (first compound 0.1 µM); 0.318 in assay [4] (first compound 0.001 µM); 0.311 in assay [4] (first compound 0.003162 µM); 0.266 in assay [4] (first compound 0.01 µM). In addition, the relative viability came to 0.23 in assay [4] (first compound 0.03162 µM) and 0.307 in assay [4] (first compound 0.1 µM).
